Numbers after ± are expanded uncertainties.
Assay: xn = mol fraction of the nth substance listed
Settings: 101 kPa, Liquid, Pycnometric method

C=CC(=O)OC(C)(C)C [tert-butyl acrylate] + C1CCOC1
mass density [kg/m3]
Settings | 293.15 K | 298.15 K | 303.15 K | 308.15 K | 313.15 K | 318.15 K
x2 = 0 | 884.13 ± 1 | 879.66 ± 1 | 875.2 ± 1 | 870.74 ± 1 | 866.28 ± 1 | 861.82 ± 1
x2 = 0.0736 | 884.47 ± 1 | 880.01 ± 1 | 875.55 ± 1 | 871.08 ± 1 | 866.61 ± 1 | 862.14 ± 1
x2 = 0.1489 | 884.84 ± 1 | 880.36 ± 1 | 875.88 ± 1 | 871.4 ± 1 | 866.92 ± 1 | 862.44 ± 1
x2 = 0.2121 | 885.14 ± 1 | 880.65 ± 1 | 876.16 ± 1 | 871.67 ± 1 | 867.17 ± 1 | 862.67 ± 1
x2 = 0.2773 | 885.43 ± 1 | 880.92 ± 1 | 876.41 ± 1 | 871.9 ± 1 | 867.39 ± 1 | 862.88 ± 1
x2 = 0.362 | 885.78 ± 1 | 881.25 ± 1 | 876.71 ± 1 | 872.17 ± 1 | 867.63 ± 1 | 863.09 ± 1
x2 = 0.4382 | 886.06 ± 1 | 881.5 ± 1 | 876.94 ± 1 | 872.37 ± 1 | 867.8 ± 1 | 863.23 ± 1
x2 = 0.5024 | 886.28 ± 1 | 881.69 ± 1 | 877.1 ± 1 | 872.5 ± 1 | 867.9 ± 1 | 863.3 ± 1
x2 = 0.5815 | 886.5 ± 1 | 881.87 ± 1 | 877.24 ± 1 | 872.61 ± 1 | 867.98 ± 1 | 863.35 ± 1
x2 = 0.6532 | 886.66 ± 1 | 882 ± 1 | 877.34 ± 1 | 872.67 ± 1 | 868 ± 1 | 863.33 ± 1
x2 = 0.7268 | 886.79 ± 1 | 882.08 ± 1 | 877.37 ± 1 | 872.66 ± 1 | 867.95 ± 1 | 863.24 ± 1
x2 = 0.7921 | 886.88 ± 1 | 882.13 ± 1 | 877.38 ± 1 | 872.62 ± 1 | 867.86 ± 1 | 863.1 ± 1
x2 = 0.8698 | 886.97 ± 1 | 882.15 ± 1 | 877.33 ± 1 | 872.51 ± 1 | 867.69 ± 1 | 862.86 ± 1
x2 = 0.9352 | 887 ± 1 | 882.12 ± 1 | 877.24 ± 1 | 872.36 ± 1 | 867.48 ± 1 | 862.59 ± 1

C=CC(=O)OC [methyl propenoate] + C1CCOC1
mass density [kg/m3]
Settings | 293.15 K | 298.15 K | 303.15 K | 308.15 K | 313.15 K | 318.15 K
x2 = 0 | 953.51 ± 1 | 947.56 ± 1 | 941.61 ± 1 | 935.66 ± 1 | 929.71 ± 1 | 923.76 ± 1
x2 = 0.0773 | 950.05 ± 1 | 944.24 ± 1 | 938.43 ± 1 | 932.62 ± 1 | 926.81 ± 1 | 921 ± 1
x2 = 0.1554 | 946.35 ± 1 | 940.67 ± 1 | 934.99 ± 1 | 929.31 ± 1 | 923.63 ± 1 | 917.95 ± 1
x2 = 0.2064 | 943.74 ± 1 | 938.15 ± 1 | 932.56 ± 1 | 926.97 ± 1 | 921.37 ± 1 | 915.77 ± 1
x2 = 0.2545 | 941.15 ± 1 | 935.63 ± 1 | 930.11 ± 1 | 924.58 ± 1 | 919.05 ± 1 | 913.52 ± 1
x2 = 0.3215 | 937.33 ± 1 | 931.89 ± 1 | 926.45 ± 1 | 921 ± 1 | 915.55 ± 1 | 910.1 ± 1
x2 = 0.3989 | 932.62 ± 1 | 927.26 ± 1 | 921.9 ± 1 | 916.54 ± 1 | 911.17 ± 1 | 905.8 ± 1
x2 = 0.4655 | 928.35 ± 1 | 923.06 ± 1 | 917.77 ± 1 | 912.47 ± 1 | 907.17 ± 1 | 901.87 ± 1
x2 = 0.53 | 924.03 ± 1 | 918.8 ± 1 | 913.57 ± 1 | 908.33 ± 1 | 903.09 ± 1 | 897.85 ± 1
x2 = 0.6023 | 918.98 ± 1 | 913.81 ± 1 | 908.64 ± 1 | 903.47 ± 1 | 898.3 ± 1 | 893.13 ± 1
x2 = 0.6834 | 913.02 ± 1 | 907.92 ± 1 | 902.82 ± 1 | 897.72 ± 1 | 892.62 ± 1 | 887.52 ± 1
x2 = 0.7632 | 906.87 ± 1 | 901.83 ± 1 | 896.79 ± 1 | 891.75 ± 1 | 886.7 ± 1 | 881.65 ± 1
x2 = 0.8468 | 900.16 ± 1 | 895.17 ± 1 | 890.18 ± 1 | 885.19 ± 1 | 880.19 ± 1 | 875.19 ± 1
x2 = 0.9316 | 893 ± 1 | 888.04 ± 1 | 883.08 ± 1 | 878.12 ± 1 | 873.16 ± 1 | 868.2 ± 1

C=CC(=O)OCCCC [butyl 2-propenoate] + C1CCOC1
mass density [kg/m3]
Settings | 293.15 K | 298.15 K | 303.15 K | 308.15 K | 313.15 K | 318.15 K
x2 = 0 | 898.85 ± 1 | 894.1 ± 1 | 889.35 ± 1 | 884.6 ± 1 | 879.85 ± 1 | 875.1 ± 1
x2 = 0.0712 | 898.62 ± 1 | 893.89 ± 1 | 889.16 ± 1 | 884.42 ± 1 | 879.68 ± 1 | 874.94 ± 1
x2 = 0.1406 | 898.39 ± 1 | 893.66 ± 1 | 888.93 ± 1 | 884.19 ± 1 | 879.45 ± 1 | 874.71 ± 1
x2 = 0.208 | 898.1 ± 1 | 893.37 ± 1 | 888.64 ± 1 | 883.91 ± 1 | 879.17 ± 1 | 874.43 ± 1
x2 = 0.2779 | 897.74 ± 1 | 893.01 ± 1 | 888.27 ± 1 | 883.53 ± 1 | 878.79 ± 1 | 874.05 ± 1
x2 = 0.3685 | 897.14 ± 1 | 892.4 ± 1 | 887.66 ± 1 | 882.91 ± 1 | 878.16 ± 1 | 873.41 ± 1
x2 = 0.4339 | 896.6 ± 1 | 891.85 ± 1 | 887.1 ± 1 | 882.35 ± 1 | 877.59 ± 1 | 872.83 ± 1
x2 = 0.4996 | 895.97 ± 1 | 891.21 ± 1 | 886.45 ± 1 | 881.69 ± 1 | 876.92 ± 1 | 872.15 ± 1
x2 = 0.5642 | 895.25 ± 1 | 890.48 ± 1 | 885.71 ± 1 | 880.93 ± 1 | 876.15 ± 1 | 871.37 ± 1
x2 = 0.6426 | 894.22 ± 1 | 889.43 ± 1 | 884.64 ± 1 | 879.85 ± 1 | 875.05 ± 1 | 870.25 ± 1
x2 = 0.7208 | 893.03 ± 1 | 888.22 ± 1 | 883.41 ± 1 | 878.59 ± 1 | 873.77 ± 1 | 868.95 ± 1
x2 = 0.7956 | 891.72 ± 1 | 886.88 ± 1 | 882.04 ± 1 | 877.2 ± 1 | 872.36 ± 1 | 867.51 ± 1
x2 = 0.8642 | 890.32 ± 1 | 885.45 ± 1 | 880.58 ± 1 | 875.71 ± 1 | 870.84 ± 1 | 865.97 ± 1
x2 = 0.9322 | 888.76 ± 1 | 883.86 ± 1 | 878.96 ± 1 | 874.05 ± 1 | 869.14 ± 1 | 864.23 ± 1

C=CC(=O)OCC [ethyl propenoate] + C1CCOC1
mass density [kg/m3]
Settings | 293.15 K | 298.15 K | 303.15 K | 308.15 K | 313.15 K | 318.15 K
x2 = 0 | 921.76 ± 1 | 915.95 ± 1 | 910.14 ± 1 | 904.33 ± 1 | 898.52 ± 1 | 892.71 ± 1
x2 = 0.0825 | 920.35 ± 1 | 914.64 ± 1 | 908.93 ± 1 | 903.22 ± 1 | 897.5 ± 1 | 891.78 ± 1
x2 = 0.167 | 918.74 ± 1 | 913.11 ± 1 | 907.48 ± 1 | 901.85 ± 1 | 896.22 ± 1 | 890.59 ± 1
x2 = 0.2302 | 917.35 ± 1 | 911.79 ± 1 | 906.23 ± 1 | 900.67 ± 1 | 895.1 ± 1 | 889.53 ± 1
x2 = 0.316 | 915.21 ± 1 | 909.73 ± 1 | 904.25 ± 1 | 898.77 ± 1 | 893.29 ± 1 | 887.81 ± 1
x2 = 0.3892 | 913.14 ± 1 | 907.73 ± 1 | 902.32 ± 1 | 896.91 ± 1 | 891.5 ± 1 | 886.09 ± 1
x2 = 0.4603 | 910.93 ± 1 | 905.58 ± 1 | 900.23 ± 1 | 894.88 ± 1 | 889.53 ± 1 | 884.18 ± 1
x2 = 0.5286 | 908.61 ± 1 | 903.32 ± 1 | 898.03 ± 1 | 892.74 ± 1 | 887.45 ± 1 | 882.16 ± 1
x2 = 0.5947 | 906.16 ± 1 | 900.93 ± 1 | 895.7 ± 1 | 890.47 ± 1 | 885.24 ± 1 | 880 ± 1
x2 = 0.6605 | 903.54 ± 1 | 898.36 ± 1 | 893.18 ± 1 | 888 ± 1 | 882.82 ± 1 | 877.64 ± 1
x2 = 0.7283 | 900.64 ± 1 | 895.52 ± 1 | 890.4 ± 1 | 885.28 ± 1 | 880.16 ± 1 | 875.04 ± 1
x2 = 0.7874 | 897.95 ± 1 | 892.88 ± 1 | 887.81 ± 1 | 882.74 ± 1 | 877.67 ± 1 | 872.6 ± 1
x2 = 0.8689 | 894 ± 1 | 888.98 ± 1 | 883.96 ± 1 | 878.94 ± 1 | 873.92 ± 1 | 868.9 ± 1
x2 = 0.936 | 890.52 ± 1 | 885.53 ± 1 | 880.54 ± 1 | 875.55 ± 1 | 870.56 ± 1 | 865.57 ± 1

Reference: the NIST ThermoML archive (doi:10.1016/j.jct.2016.10.042)
